Measurements as given in ChEMBL document CHEMBL1151408 (J Nat Prod, 1983).

Legend:
Mus musculus [1] = species on record: Mus musculus; assay: Increase in hepatic ethylmorphine N-demethylase activity in mouse; format: functional
Mus musculus [2] = species on record: Mus musculus; assay: Increase in aryl hydrocarbon hydroxylase activity in mouse; format: functional

Structure (SMILES): CO[C@H]1/C=C/O[C@@]2(C)Oc3c(C)c(O)c4c(O)c(c(/C=N/N5CCN(C)CC5)c(O)c4c3C2=O)NC(=O)/C(C)=C\C=C\[C@H](C)[C@H](O)[C@@H](C)[C@@H](O)[C@@H](C)[C@H](OC(C)=O)[C@@H]1C [RIFAMPIN]
- Activity (Mus musculus [1]): 85%
- Activity (Mus musculus [2]): 174%
